Measured values from ChEMBL document CHEMBL1126102, “2-(N'-aralkylidenehydrazino)adenosines: potent and selective coronary vasodilators” (J Med Chem, 1992).

Legend:
Adenosine A2 receptor = assay: Tested for adenosine A2 receptor agonistic activity by determining coronary vasodilation; assay type: functional, Cavia porcellus
Adenosine receptor A1 = biological target: T1, Adenosine receptor A1 (Cavia porcellus, UniProt P47745); assay: Tested for adenosine A1 receptor agonistic activity by determining concentration needed to prolong the stimulus-QRS interval by 50% of the maximum response; assay type: functional
T1 sequence (P47745 whole entry): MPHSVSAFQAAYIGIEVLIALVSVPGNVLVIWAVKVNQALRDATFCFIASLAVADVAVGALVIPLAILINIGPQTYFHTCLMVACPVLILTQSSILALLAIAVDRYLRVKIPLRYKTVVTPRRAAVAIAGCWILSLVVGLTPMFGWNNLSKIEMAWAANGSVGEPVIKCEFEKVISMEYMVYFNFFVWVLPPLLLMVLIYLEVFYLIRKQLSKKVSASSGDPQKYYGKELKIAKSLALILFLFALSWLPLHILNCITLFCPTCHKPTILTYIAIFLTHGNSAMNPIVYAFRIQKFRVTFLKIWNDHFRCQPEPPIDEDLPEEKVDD

Row | Structure (SMILES) | -Log EC50 (Adenosine A2 receptor) | EC50 (Adenosine receptor A1)
1 | Nc1nc(N/N=C/c2ccsc2)nc2c1ncn2C1O[C@H](CO)[C@@H](O)[C@H]1O (stereo not given in full) | 7.81 | 60.3 µM
2 | Nc1nc(N/N=C/c2ccccc2F)nc2c1ncn2C1O[C@H](CO)[C@@H](O)[C@H]1O (stereo not given in full) | 8.43 | 41.7 µM
3 | Nc1nc(N/N=C/c2cccc3ccccc23)nc2c1ncn2C1O[C@H](CO)[C@@H](O)[C@H]1O (stereo not given in full) | 8.02 | 0.832 µM
4 | CC(C)(C)OC(=O)CCc1ccc(/C=N/Nc2nc(N)c3ncn(C4O[C@H](CO)[C@@H](O)[C@H]4O)c3n2)cc1 (stereo not given in full) | 8.52 | 12 µM
5 | Cc1ccc(/C=N/Nc2nc(N)c3ncn(C4O[C@H](CO)[C@@H](O)[C@H]4O)c3n2)cc1 (stereo not given in full) | – | 39.8 µM
6 | COc1cccc(/C=N/Nc2nc(N)c3ncn(C4O[C@H](CO)[C@@H](O)[C@H]4O)c3n2)c1 (stereo not given in full) | 7.91 | 19.5 µM
7 | Nc1nc(N/N=C/c2ccccc2)nc2c1ncn2C1O[C@H](CO)[C@@H](O)[C@H]1O (stereo not given in full) | 8.64 | 83.2 µM
8 | C/C(=N\Nc1nc(N)c2ncn(C3O[C@H](CO)[C@@H](O)[C@H]3O)c2n1)c1ccc(F)cc1 (stereo not given in full) | 8.49 | 4.17 µM
9 | C/C(=N\Nc1nc(N)c2ncn(C3O[C@H](CO)[C@@H](O)[C@H]3O)c2n1)c1ccccc1 (stereo not given in full) | 7.9 | 3.02 µM
10 | Nc1nc(N/N=C/c2ccccn2)nc2c1ncn2C1O[C@H](CO)[C@@H](O)[C@H]1O (stereo not given in full) | 8.24 | 41.7 µM
11 | Nc1nc(NCCc2ccc(CCC(=O)O)cc2)nc2c1ncn2C1O[C@H](CO)[C@@H](O)[C@H]1O (stereo not given in full) | 7.95 | 112 µM
12 | Cc1cccc(/C=N/Nc2nc(N)c3ncn(C4O[C@H](CO)[C@@H](O)[C@H]4O)c3n2)c1 (stereo not given in full) | 8.36 | 17 µM
13 | Nc1nc(N/N=C/c2ccncc2)nc2c1ncn2C1O[C@H](CO)[C@@H](O)[C@H]1O (stereo not given in full) | 7.96 | 26.3 µM
14 | Nc1nc(N/N=C/c2cc(Br)cs2)nc2c1ncn2C1O[C@H](CO)[C@@H](O)[C@H]1O (stereo not given in full) | 8.28 | 57.5 µM
15 | Cc1ccccc1/C=N/Nc1nc(N)c2ncn(C3O[C@H](CO)[C@@H](O)[C@H]3O)c2n1 (stereo not given in full) | 7.92 | 43.7 µM
16 | CC(C)(C)OC(=O)CCc1ccc(CCNc2nc(N)c3ncn(C4O[C@H](CO)[C@@H](O)[C@H]4O)c3n2)cc1 (stereo not given in full) | 8.28 | 19.1 µM
17 | Nc1nc(N/N=C/c2cccc(F)c2)nc2c1ncn2C1O[C@H](CO)[C@@H](O)[C@H]1O (stereo not given in full) | 8.47 | 9.12 µM
18 | NNc1nc(N)c2ncn(C3O[C@H](CO)[C@@H](O)[C@H]3O)c2n1 (stereo not given in full) | 7.1 | –
19 | COc1ccccc1/C=N/Nc1nc(N)c2ncn(C3O[C@H](CO)[C@@H](O)[C@H]3O)c2n1 (stereo not given in full) | 6.86 | 12.3 µM
20 | Nc1nc(N/N=C/c2ccc(CCC(=O)O)cc2)nc2c1ncn2C1O[C@H](CO)[C@@H](O)[C@H]1O (stereo not given in full) | 8.18 | 30.9 µM

The remaining molecules from weak to strong by EC50 (Adenosine receptor A1), led by results:

Row | -Log EC50 (Adenosine A2 receptor) | EC50 (Adenosine receptor A1) | Structure (SMILES)
21 | 8.04 | 83.2 µM | Nc1nc(N/N=C/Cc2ccccc2)nc2c1ncn2C1O[C@H](CO)[C@@H](O)[C@H]1O (stereo not given in full)
22 | – | 66.1 µM | Nc1nc(N/N=C/CCc2ccccc2)nc2c1ncn2C1O[C@H](CO)[C@@H](O)[C@H]1O (stereo not given in full)
23 | 8.34 | 49 µM | Nc1nc(N/N=C/c2cccc(Cl)c2)nc2c1ncn2C1O[C@H](CO)[C@@H](O)[C@H]1O (stereo not given in full)
24 | 8.12 | 49 µM | Nc1nc(N/N=C/c2ccccc2Cl)nc2c1ncn2C1O[C@H](CO)[C@@H](O)[C@H]1O (stereo not given in full)
25 | 7.86 | 41.7 µM | Nc1nc(N/N=C/c2cccs2)nc2c1ncn2C1O[C@H](CO)[C@@H](O)[C@H]1O (stereo not given in full)
26 | 7.83 | 32.4 µM | Nc1nc(N/N=C/c2cccnc2)nc2c1ncn2C1O[C@H](CO)[C@@H](O)[C@H]1O (stereo not given in full)
27 | 8.61 | 12.6 µM | Nc1nc(N/N=C/c2ccc(F)cc2)nc2c1ncn2C1O[C@H](CO)[C@@H](O)[C@H]1O (stereo not given in full)
28 | 7.55 | 8.91 µM | C/C(=N\Nc1nc(N)c2ncn(C3O[C@H](CO)[C@@H](O)[C@H]3O)c2n1)c1cccs1 (stereo not given in full)
29 | 8.38 | 2.63 µM | Nc1nc(N/N=C/c2ccc3ccccc3c2)nc2c1ncn2C1O[C@H](CO)[C@@H](O)[C@H]1O (stereo not given in full)
